# According to patent US20190202774A1, “BIARYL COMPOUNDS AS ANTIMICROBIAL AND CHEMOTHERAPEUTIC AGENTS” (priority 2015, published 2019):
# Entries after “also recorded” stand apart in the source; their conditions may differ. Structures can show the parent of a compound that is named as a salt. Where two headings read alike, the source gives them in different places.
# Columns and labels:
# [1] = test system: 38 MRSA strains
# [2] = test system: MRSA strains USA300, 0606, 0608, 0634, 0641, and 0646; test: MIC/MBC against six MRSA strains (variants of C58/C59, pH, DMSO); type: cell-based, Staphylococcus aureus
# Experimental: Six MRSA strains, USA300, 0606, 0608, 0634, 0641, and 0646 were chosen based on their activity against biaryl compounds and vancomycin to determine structure-activity relationship of biaryl compounds. The effect of phenolic group on the activity of biaryl compounds was tested by modifying C59. First, the phenolic group was protected by acetylation to yield an acetylated C59 (C59-2) (FIG. 7B). Additional variants of C59, in the form of sodium and lithium salts were synthesized by incubation with sodium hydroxide and lithium hydroxide (FIGS. 7C and 7D). Antimicrobial activity of these deprotonated, water-soluble sodium (C59Na) and lithium (C59Li) salts, and acetylated derivative of C59 was tested against 6 MRSA strains and compared to the parent compound, C59 (FIGS. 8A-8D). Results from this comparative experiment indicate the contribution of phenolic group/phenoxide ion to the antimicrobial activity.
# Further investigation into activity of these compounds under acidic pH conditions also points towards the role of phenolic group. An effective antimicrobial should be active under a wide range of pH conditions, including the physiological pH of 7.4. Localized pH in an infection is often lower than the physiological pH, and may be as low as 5.5 (Radovic-Moreno et al., 2012). Additionally, pH varies among organs (Radovic-Moreno et al., 2012). For example, pH in the bladder or on the skin is found to be between 4.5 and 8.0, or 4.0 and 5.5, respectively (Radovic-Moreno et al., 2012). […] The activity of all biaryl compounds is enhanced by at least four- to eight-fold with reduction in pH from 7.4 to 5.5.
# Water soluble sodium and lithium salts of C59 (C59Na and C59Li) and their antimicrobial activity against six MRSA strains are reported above. A sodium salt of C58 (C58Na) was prepared and evaluated efficacy of this compound against these six MRSA strains. […] The poor activity of C58Na may be a result of poor stability of C58Na compared with C59Na and C59Li.
# [3] = test system: human lung airway epithelial cells (16HBE); settings: 24-h incubation, non-linear curve fit
# Experimental: Finally, toxicity of biaryl compounds was tested against human lung airway epithelial cells (16HBE), human dermal fibroblasts, and J774.A1 murine macrophages using an ALAMARBLUE® Cell Viability Assay. Biaryl compounds, C58, acetylated C58 (C58-2), C59, C59-2, C59Na, and C59Li were incubated with cells for 24 hours and an ALAMARBLUE® Cell Viability Assay was performed to determine cell viability relative to untreated controls (FIGS. 13A-13C). Cell viability curves were analyzed using non-linear curve fit to yield the inhibitory concentration at median cell survival (LD50) for all cell lines (Table 3).
# Next, the toxicity of lead candidates was tested against human lung airway epithelial cells (16HBE) and human dermal fibroblasts (HDF) using an alamarBlue® Cell Viability Assay.
# [4] = test system: A549; test: Lung cancer cell survival, A549; type: cell-based; settings: 72 hour incubation, non-linear curve fit
# Experimental: (§1) The IC50 values generated using a non-linear curve fit with lung cancer cell lines, A549, H460, H2122, and H2073 are listed in Table 10. Experiments were performed using C58, C58-2, C59, C59-2, C119, and acetylated C119 (C119-2). […] Additionally, these concentrations are clinically achievable for treatment of lung cancer and a detailed structure activity relationship experiments needs to be performed to identify promising anticancer candidates.
# [5] = test system: H2073; test: Lung cancer cell survival, H2073; type: cell-based; settings: 72 hour incubation, non-linear curve fit
# Experimental: as §1
# [6] = test system: H2122; test: Lung cancer cell survival, H2122; type: cell-based; settings: 72 hour incubation, non-linear curve fit
# Experimental: as §1
# [7] = test system: H460; test: Lung cancer cell survival, H460; type: cell-based; settings: 72 hour incubation, non-linear curve fit
# Experimental: as §1
# [8] = test system: R. equi strains 701+, 701−, 703, and 5331; test: MIC/MBC broth microdilution against R. equi; type: cell-based, Rhodococcus equi
# [9] = test system: erythrocytes from sheep blood; test: Hemolytic activity
# Experimental: Toxicity of biaryl compounds was tested against erythrocytes as well as eukaryotic epithelial, dermal, and macrophage cell lines in vitro.
# Toxicity of lead antimicrobial candidates was tested against erythrocytes, as well as eukaryotic epithelial and dermal cell lines in vitro.
# [10] = test system: MRSA strain USA300; test: DiSC3(5) membrane permeabilization; type: cell-based, Staphylococcus aureus; settings: positive control, 100 nM
# Experimental: Biaryl compounds and their analogues have been reported to be membrane active agents (Isnansetyo and Kamei, 2003 and Kamei et al., 2003). An experiment was performed to verify the membrane permeabilization activity of biaryl compound. C58 using a fluorescent dye, 3,3′-Dipropylthiacarbocyanine iodide (DiSC3(5)). The fluorescence signal from DiSC3(5) is in a quenched state when it interacts with the hydrophobic region of the cell membrane. Upon disruption of the membrane, DiSC3(5) is released and regains its fluorescent activity, which is measured as a fluorescence signal (RFU).
# [11] = test system: 38 MRSA strains; test: microbe, parasite or virus in culture; settings: Staphylococcus aureus
# [12] = test system: seven S. pneumoniae strains; test: MIC/MBC against panel of S. pneumoniae strains; type: cell-based; settings: Streptococcus pneumoniae
# Experimental: The activity of compounds against Gram-positive pathogens, S. pyogenes and S. pneumoniae, identified through the preliminary screen (FIG. 15) was evaluated against a panel of these pathogens.
# [13] = test system: E. faecalis strains 49532 and 51575; test: MIC/MBC broth microdilution against E. faecalis; type: cell-based, Enterococcus faecalis; settings: Enterococcus faecalis
# [14] = test system: MRSA strains SAD05 and 0632 in a biofilm; test: MBEC High-throughput biofilm assay; type: cell-based, Staphylococcus aureus; settings: 6 hours
# [15] = test system: 21 S. epidermidis strains; test: MIC90/MBC90 broth microdilution against 21 S. epidermidis strains; type: cell-based, Staphylococcus epidermidis; settings: Staphylococcus epidermidis
# Text: We are currently in the process of evaluating the MICs and MBCs for 5-32.
# [16] = test system: MRSA strains USA300 and SALL06; test: Kill kinetics with stationary-phase MRSA; type: cell-based, Staphylococcus aureus
# [17] = test system: MRSA strain USA300; test: Kill kinetics with planktonic log-phase MRSA; type: cell-based, Staphylococcus aureus; settings: log-phase USA300, 24 hours
# [18] = read-out: MBC90, 38 MRSA strains, MH broth
structure (smiles),measurement,setting,value
CCCCCCCCCC(=O)N[C@@H](Cc1c[nH]c2ccccc12)C(=O)N[C@H](CC(N)=O)C(=O)N[C@@H](CC(=O)O)C(=O)N[C@@H]1C(=O)NCC(=O)N[C@@H](CCCN)C(=O)N[C@@H](CC(=O)O)C(=O)N[C@H](C)C(=O)N[C@@H](CC(=O)O)C(=O)NCC(=O)N[C@H](CO)C(=O)N[C@@H]([C@H](C)CC(=O)O)C(=O)N[C@@H](CC(=O)c2ccccc2N)C(=O)O[C@@H]1C [Daptomycin hydrochloride],MBC90,[1]; MH broth,>32 µg/mL
same,MBC90,[1]; cation adjusted MH broth,2 µg/mL
[Li+].[Li+].[O-]c1c(Cl)cc(Cl)cc1-c1cc(Cl)cc(Cl)c1[O-] [C59Li],activity in the absence of DMSO versus with 2.5% DMSO,[2],at least comparable activity
same,antimicrobial activity (MIC and MBC) compared to the parent compound,[2],enhanced activity; also recorded: superior activity over C59
same,16HBE LD50,[3],24.4 µg/mL
CC(=O)Oc1c(Br)cc(Br)cc1-c1cc(Br)cc(Br)c1OC(C)=O [C58-2],A549 LD50,[4],74 µM
same,H2073 LD50,[5],36 µM
same,H2122 LD50,[6],87 µM
same,H460 LD50,[7],51 µM
"CO[C@H]1/C=C/O[C@@]2(C)Oc3c(C)c(O)c4c(O)c(c(/C=N/N5CCN(C)CC5)c(O)c4c3C2=O)NC(=O)/C(C)=C\C=C\[C@H](C)[C@H](O)[C@@H](C)[C@@H](O)[C@@H](C)[C@H](OC(C)=O)[C@@H]1C [Rifampicin, reference compound]",MBC,"[8]; Rhodococcus (subgen. Prescottella) equi, strain 701+, read-out: MBC",> 192 µg/mL
same,MIC,"[8]; Rhodococcus (subgen. Prescottella) equi, strain 701+, read-out: MIC",0.5 µg/mL
same,MBC,"[8]; Rhodococcus (subgen. Prescottella) equi, strain 701−, read-out: MBC",> 192 µg/mL
same,MIC,"[8]; Rhodococcus (subgen. Prescottella) equi, strain 703",0.125 µg/mL
same,MBC,"[8]; Rhodococcus (subgen. Prescottella) equi, strain 703, read-out: MBC",80 µg/mL
same,MIC,"[8]; Rhodococcus (subgen. Prescottella) equi, strain 5331",0.125 µg/mL
same,MBC,"[8]; Rhodococcus (subgen. Prescottella) equi, strain 5331, read-out: MBC",32 µg/mL
same,MIC,[8]; strain 701−,0.5 µg/mL
[Na+].[Na+].[O-]c1c(Br)cc(Br)cc1-c1cc(Br)cc(Br)c1[O-] [C58Na],activity in the absence of DMSO versus with 2.5% DMSO,[2],at least comparable activity
same,antimicrobial activity (MIC and MBC) compared to the parent compound,[2],poor activity
same,16HBE LD50,[3],92.3 µg/mL
same,onset of hemolysis,[9],32 to 48 µg/mL
"O=C(Nc1ccc(Cl)c(Cl)c1)c1cc(Cl)cc(Cl)c1O [3,3′,4′,5-tetrachlorosalicylanilide, reference compound]",membrane disruption (DiSC3(5) fluorescence),[10],positive membrane disruption
"CN[C@H](CC(C)C)C(=O)N[C@H]1C(=O)N[C@@H](CC(N)=O)C(=O)N[C@H]2C(=O)N[C@H]3C(=O)N[C@H](C(=O)N[C@H](C(=O)O)c4cc(O)cc(O)c4-c4cc3ccc4O)[C@H](O)c3ccc(c(Cl)c3)Oc3cc2cc(c3O[C@@H]2O[C@H](CO)[C@@H](O)[C@H](O)[C@H]2O[C@H]2C[C@](C)(N)[C@H](O)[C@H](C)O2)Oc2ccc(cc2Cl)[C@H]1O [Vancomycin hydrochloride, reference compound]",MIC90,[11],2 µg/mL
same,MBC,[11]; read-out: MBC90,16 µg/mL
same,change of activity with reduction in pH from 7.4 to 5.5,"[2]; pH 7.4, 6.5, 5.5",does not exhibit any improvement
same,MBC,[12]; read-out: MBCs,0.25 to 0.5 µg/mL
same,MIC,[12]; read-out: MICs,0.25 to 0.5 µg/mL
same,MBC,[13]; strain 49532,> 512 µg/mL
same,MIC,[13]; strain 49532,1 µg/mL
same,MBC,[13]; strain 51575,> 192 µg/mL
same,MIC,[13]; strain 51575,192 µg/mL
same,activity against biofilm mode bacteria,[14],Lack of activity
same,MIC90,[15],4 µg/mL
same,MBC,[15]; read-out: MBC90,8 µg/mL
same,bacterial counts versus untreated controls,"[16]; at 24 hours, 0.5-2.0",no difference
same,eradication of stationary-phase bacteria,"[16]; stationary-phase USA300 and SALL06, up to 24 hours",fails to eradicate the bacterial burden completely
same,dose response of bacterial eradication,[17],absence of dose response
CCC[C@@H]1C[C@@H](C(=O)N[C@@H]([C@H]2O[C@H](SC)[C@H](O)[C@@H](O)[C@H]2O)[C@H](C)Cl)N(C)C1 [Clindamycin hydrochloride],MIC90,"[11]; 38 MRSA strains, MH broth",≥ 32 µg/mL
same,MBC,[11]; [18],≥ 32 µg/mL
same,MBC90,"[1]; MH broth, hydrochloride",>32 µg/mL
same,MIC90,"[1]; MH broth, hydrochloride",>32 µg/mL
CC(=O)Oc1c(Cl)cc(Cl)cc1-c1cc(Cl)cc(Cl)c1OC(C)=O [C59-2],antimicrobial activity (MIC and MBC) compared to the parent compound,[2],Reduction of activity
same,A549 LD50,[4],74 µM
same,H2073 LD50,[5],45 µM
same,MBC,[8]; strain 701+,16 µg/mL
same,MIC,[8]; strain 701+,4 µg/mL
same,MBC,[8]; strain 701−,16 µg/mL
same,MIC,[8]; strain 701−,4 µg/mL
same,MBC,[8]; strain 703,16 µg/mL
same,MIC,[8]; strain 703,2 µg/mL
same,MBC,[8]; strain 5331,16 µg/mL
same,MIC,[8]; strain 5331,4 µg/mL
same,H2122 LD50,[6],99 µM
same,H460 LD50,[7],73 µM
CC(=O)NC[C@H]1CN(c2ccc(N3CCOCC3)c(F)c2)C(=O)O1 [Linezolid],MIC90,"[11]; 38 MRSA strains, MH broth",4 µg/mL
same,MBC,[11]; [18],> 32 µg/mL
Nc1c(-c2c(O)ccc3ccccc23)cc(Cl)c(Cl)c1Cl [C119],A549 LD50,[4],52 µM
same,H2073 LD50,[5],33 µM
same,H2122 LD50,[6],58 µM
same,H460 LD50,[7],37 µM
